Publication PMC8317065, “UPLC-MS/MS Method for Analysis of Endocannabinoid and Related Lipid Metabolism in Mouse Mucosal Tissue” (Frontiers in Physiology, 2021)

Experiments:
[1] = system: MGL and ABHD6; assay: MAG degradative enzyme activity assay with JZL 184 and WWL 70 together, lung protein isolates; format: biochemical; conditions: mouse lung
Procedure: (§1) Homogenized samples were centrifuged at 800 × g for 15 m at 4°C. The supernatant was collected in a 2.0 mL centrifuge tube and sonicated twice for 10 s. Samples underwent two sequential freeze thaw cycles using liquid N2. Samples were again centrifuged at 800 × g, 15 min, 4°C and the supernatant was collected. Total protein was then quantified via BCA assay and normalized between all samples. Protein isolations for each assay and each tissue were performed separately.
Substrate solutions were prepared by drying stock 19:2 MAG (50 nmol/reaction) under N2 steam and adding fatty acid free BSA (0.25%) and stock 50 mM Tris–HCl (pH = 8.0). The MGL substrate solution was then sonicated for 60 min while protein samples were prepared. […] MGL substrate solution was added to normalized protein (400 μL; 500 μL final volume) samples and incubated in a water bath at 37°C for 10 min (jejunum protein) or 30 min (lung protein). […] The products of the reaction were extracted via lipid extraction methods (see section “Lipid Extraction for Enzyme Assays”) and quantified via UPLC-MS/MS (see section “Quantitation of MAG Degradative Enzyme Activity Assay Products”).
Lipids were extracted using liquid-liquid extraction with chloroform (2.0 mL) followed by 0.8 mL 0.2-micron ultra-purified water. […] Products were detected and quantified via UPLC-MS/MS techniques (see section “UPLC-MS/MS Detection of Analytes”). […]

[2] = molecular target: T1, FAAH (Mus musculus, UniProt O08914); assay: FAAH (FAE degradative enzyme) activity assay, UPLC-MS/MS, jejunum epithelium protein isolates; format: biochemical; conditions: jejunum epithelium protein 50 μg
T1 construct: from tissue; host or cells: mouse (C57BL/6J) lung, 21,100 x g pellet
T1 sequence (O08914 1-579): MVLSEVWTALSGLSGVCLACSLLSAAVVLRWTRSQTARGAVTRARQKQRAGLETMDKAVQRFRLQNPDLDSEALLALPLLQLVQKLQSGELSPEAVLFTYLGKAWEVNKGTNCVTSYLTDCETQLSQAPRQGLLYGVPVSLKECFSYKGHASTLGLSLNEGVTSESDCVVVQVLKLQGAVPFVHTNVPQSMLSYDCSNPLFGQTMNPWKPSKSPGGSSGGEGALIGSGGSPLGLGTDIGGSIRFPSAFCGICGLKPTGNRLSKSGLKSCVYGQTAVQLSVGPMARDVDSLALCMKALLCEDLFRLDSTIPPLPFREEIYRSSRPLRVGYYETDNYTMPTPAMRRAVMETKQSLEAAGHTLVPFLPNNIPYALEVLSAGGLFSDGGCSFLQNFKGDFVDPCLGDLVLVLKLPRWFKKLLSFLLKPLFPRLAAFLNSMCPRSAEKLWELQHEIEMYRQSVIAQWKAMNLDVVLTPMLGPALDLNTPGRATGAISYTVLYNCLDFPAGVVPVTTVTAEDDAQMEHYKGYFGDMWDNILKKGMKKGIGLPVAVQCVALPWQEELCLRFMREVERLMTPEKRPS
Procedure: (§2) Homogenized samples were centrifuged at 21,100 × g for 30 min at 4°C. The supernatant was discarded, and the pellets were resuspended in 750 μL of chilled 1x PBS (pH = 7.0). To ensure homogenous solution, lung samples were further homogenized using a sonic dismembranator using 8–10 root mean square (RMS) Watts of output power. Total protein was then quantified via BCA assay and normalized between all samples. Alternative protein isolation methods were required for FAAH isolation due to its subcellular localization to membranes of cytoplasmic organelles ([Gulyas et al., 2004]).
(§3) Substrate solutions were prepared by drying stock [^2H4]-PEA (5 nmol/reaction) under N2 steam and adding fatty acid free BSA (0.25%) and stock 50 mM Tris–HCl (pH = 8.0). The substrate solution was then bath sonicated for 60 min while protein samples were prepared. […] The products of the reaction were extracted via lipid extraction methods (see section “Lipid Extraction for Enzyme Assays”) and quantified via UPLC-MS/MS (see section “Quantitation of FAE Degradative Enzyme Activity”).
(§4) Lipids were extracted using liquid-liquid extraction with chloroform (2.0 mL) followed by 0.8 mL 0.2-micron ultra-purified water. […] Products were detected and quantified via UPLC-MS/MS techniques (see section “UPLC-MS/MS Detection of Analytes”).

[3] = system: FAAH; set-up: method as in Piomelli et al., 2006; conditions: rat brain membranes; ref Piomelli et al., 2006; read-out: IC50 reported for rat brain membranes; cited from earlier work
[4] = molecular target: T1, FAAH; assay: FAAH activity assay, UPLC-MS/MS, lung protein isolates; format: biochemical; conditions: lung protein 10 μg
Procedure: as §2, §3, §4

[5] = system: ABHD6; set-up: method as in Li et al., 2007; conditions: fibroblast cell line; ref Li et al., 2007; read-out: IC50 reported for a fibroblast cell line; cited from earlier work
[6] = molecular target: T2, ABHD6 (Mus musculus, UniProt Q8R2Y0); assay: MAG degradative enzyme activity assay with WWL 70, lung protein isolates; format: biochemical; conditions: for MAG metabolism, product recovery (normalized response): lung protein 25 μg, WWL 70 alone
T2 construct: from tissue; host or cells: mouse (C57BL/6J) lung, 800 x g supernatant
T2 sequence (Q8R2Y0 1-336): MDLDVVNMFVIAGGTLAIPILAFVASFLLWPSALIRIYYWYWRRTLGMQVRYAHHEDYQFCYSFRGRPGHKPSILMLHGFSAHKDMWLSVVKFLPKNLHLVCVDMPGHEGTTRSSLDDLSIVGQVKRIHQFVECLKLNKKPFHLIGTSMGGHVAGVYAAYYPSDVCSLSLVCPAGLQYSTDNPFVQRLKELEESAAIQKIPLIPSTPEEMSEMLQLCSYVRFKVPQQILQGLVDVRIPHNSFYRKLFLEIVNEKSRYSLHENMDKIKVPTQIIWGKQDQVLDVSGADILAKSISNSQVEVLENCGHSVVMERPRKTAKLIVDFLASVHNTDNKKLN
Procedure: as §1
Substrate solutions were prepared by drying stock 19:2 MAG (50 nmol/reaction) under N2 steam and adding fatty acid free BSA (0.25%) and stock 50 mM Tris–HCl (pH = 8.0). The MGL substrate solution was then sonicated for 60 min while protein samples were prepared. […] MGL substrate solution was added to normalized protein (400 μL; 500 μL final volume) samples and incubated in a water bath at 37°C for 10 min (jejunum protein) or 30 min (lung protein). The reaction was stopped using 1.0 mL of chilled methanol containing the internal standard 17:1 FFA (5 nmol/reaction) and placed on ice. The products of the reaction were extracted via lipid extraction methods (see section “Lipid Extraction for Enzyme Assays”) and quantified via UPLC-MS/MS (see section “Quantitation of MAG Degradative Enzyme Activity Assay Products”).
Lipids were extracted using liquid-liquid extraction with chloroform (2.0 mL) followed by 0.8 mL 0.2-micron ultra-purified water. Samples were centrifuged (1500 × g, 5 min, 4°C) and the lower organic phase was collected. The samples were further purified, as previously described ([Batugedara et al., 2018]), via open-bed silica gel column chromatography which was washed with a 9:1 chloroform:methanol mixture to elute MAGs, FAEs, and FFAs for collection. Eluates were dried under N2 steam (99.998% pure) and resuspended in 0.2 mL of methanol:chloroform (1:1). Products were detected and quantified via UPLC-MS/MS techniques (see section “UPLC-MS/MS Detection of Analytes”).
Data was acquired using equipment described above (see section “UPLC-MS/MS Detection of Analytes”) and eluted by a gradient of water and methanol (containing 0.25% acetic acid, 5 mM ammonium acetate) at a flow rate of 0.4 mL/min and gradient: 90% methanol 0.0–0.1 min, 90–100% methanol 0.1–2.0 min, 100% methanol 2.0–2.1 min, 100–90% methanol 2.1–2.2 min, and 90% methanol 2.2–2.5 min. […] Lipids were quantified using a dilution series detecting deprotonated molecular ions in selected ion reading (SIR) mode (variable amounts of product 19:2 FFA versus fixed amount of internal standard 17:1 FFA). Extracted ion chromatograms for SIR masses were used to quantify analytes: 19:2 FFA (m/z = 293.2) product of MGL enzyme assay and 17:1 FFA (m/z = 267.2) as internal standard. Signal to noise ratio was >10 for all quantitated results.

[7] = highest inhibitor concentration of range (1,000 nM)
[8] = lowest inhibitor concentration of range (3 nM)

O=C(Oc1ccc([N+](=O)[O-])cc1)N1CCC(C(O)(c2ccc3c(c2)OCO3)c2ccc3c(c2)OCO3)CC1 [JZL 184]
MAG metabolism (normalized response) ([1]; 10 μM WWL 70 plus JZL 184, highest concentration of range (10,000 nM)): 22.32 ± 2.73% | MAG metabolism (normalized response) ([1]; 10 μM WWL 70 plus JZL 184, lowest concentration of range (3 nM)): 94.25 ± 6.64%

NC(=O)c1cccc(-c2cccc(OC(=O)NC3CCCCC3)c2)c1 [URB597]
FAAH activity (normalized response) [2, 7]: 7.37 ± 0.001% | FAAH activity (normalized response) [2, 8]: 94.95 ± 7.89% | IC50 [3]: […] | FAE metabolism (normalized response) [4, 7]: 4.15 ± 0.46% | FAE metabolism (normalized response) [4, 8]: 90.11 ± 8.58%

CN(Cc1cccc(-c2ccncc2)c1)C(=O)Oc1ccc(-c2ccc(C(N)=O)cc2)cc1 [WWL 70]
IC50 [5]: […] | MAG metabolism, product recovery (normalized response) ([6]; highest concentration of range (10,000 nM)): 33.07 ± 1.72% | MAG metabolism, product recovery (normalized response) ([6]; lowest concentration of range (3 nM)): 87.89 ± 13.69% | IC50 ([6]; mouse lung protein isolates 25 μg, WWL 70 3-10,000 nM alone, inhibition incomplete, read-out: IC50, inhibition of MAG metabolism (ABHD6 activity)): 780 nM | blockade of MAG degradation, maximum ([6]; protein isolates from lungs of healthy male mice, concentration-dependent): up to 66%
